Where two headings read alike, the source gives them in different places. Blank lines part the entries; values can stand above or below the compound they belong to.
Legend:
[1] = target: T1, c-Met (cytoplasmic domain) (Homo sapiens, UniProt P08581); test: c-Met Kinase Assay (same methods as for ALK, with modifications); type: biochemical
T1 construct: 10 ng/mL c-Met (cytoplasmic domain, Invitrogen Corporation #PV3143); purchased Invitrogen Corporation PV3143
Protocol: (§1) Briefly, each 96-well plate was coated with 100 μL/well of 10 μg/mL substrate (phospholipase C-γ) in Tris-buffered saline (TBS). […] The reaction was initiated by adding enzyme (30 ng/ml ALK) and was allowed to proceed at 37° C. for 15 minutes. Detection of the phosphorylated product was performed by adding 100 μl/well of Eu-N1 labeled PT66 antibody (Perkin Elmer # AD0041).
(§2) Data analysis was performed using ActivityBase (IDBS, Guilford, UK). IC50 values were calculated by plotting percent inhibition versus log10 of the concentration of compound and fitting to the nonlinear regression sigmoidal dose-response (variable slope) equation in XLFit (IDBS, Guilford, UK).
Reactions were initiated with 10 ng/mL c-Met (cytoplasmic domain, Invitrogen Corporation #PV3143).

[2] = target: T2, baculovirus-expressed ALK (Homo sapiens, UniProt Q9UM73); test: ALK Kinase Assay (ELISA-type, time-resolved fluorescence); type: biochemical
T2 construct: host or cells: baculovirus expression system
Protocol: as §1, §2

[3] = 1 μM ATP (Km level), read-out: cMet Activity (c-Met Kinase Inhibition, IC50)
[4] = 1 μM ATP (Km level), read-out: ALK Activity (ALK Kinase Inhibition, IC50)
[5] = c-Met kinase inhibition, 1 μM ATP, read-out: cMet Activity
[6] = ALK kinase inhibition, 1 μM ATP, read-out: ALK Activity
[7] = c-Met kinase inhibition, 1 μM ATP (Km level), read-out: cMet Activity
[8] = 1 μM ATP (Km level), 10 ng/mL c-Met, read-out: cMet Activity (c-Met kinase inhibition, IC50 class)
[9] = 1 μM ATP (Km level), 30 ng/ml ALK, 37° C., 15 minutes, read-out: ALK Activity (ALK kinase inhibition, IC50 class)

T1 sequence (P08581 956-1390 limits assumed): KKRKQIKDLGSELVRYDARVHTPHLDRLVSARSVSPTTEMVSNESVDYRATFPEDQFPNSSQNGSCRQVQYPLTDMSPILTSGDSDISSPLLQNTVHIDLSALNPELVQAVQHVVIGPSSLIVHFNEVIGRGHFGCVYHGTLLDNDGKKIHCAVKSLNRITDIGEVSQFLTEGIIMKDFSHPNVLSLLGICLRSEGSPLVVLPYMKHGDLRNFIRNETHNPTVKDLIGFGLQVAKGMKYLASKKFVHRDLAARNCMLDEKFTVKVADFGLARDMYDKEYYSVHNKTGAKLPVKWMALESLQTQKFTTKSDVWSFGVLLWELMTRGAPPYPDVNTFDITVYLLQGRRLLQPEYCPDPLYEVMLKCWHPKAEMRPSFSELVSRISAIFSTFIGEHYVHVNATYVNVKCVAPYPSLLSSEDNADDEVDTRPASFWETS
T2 sequence (Q9UM73 19-1620): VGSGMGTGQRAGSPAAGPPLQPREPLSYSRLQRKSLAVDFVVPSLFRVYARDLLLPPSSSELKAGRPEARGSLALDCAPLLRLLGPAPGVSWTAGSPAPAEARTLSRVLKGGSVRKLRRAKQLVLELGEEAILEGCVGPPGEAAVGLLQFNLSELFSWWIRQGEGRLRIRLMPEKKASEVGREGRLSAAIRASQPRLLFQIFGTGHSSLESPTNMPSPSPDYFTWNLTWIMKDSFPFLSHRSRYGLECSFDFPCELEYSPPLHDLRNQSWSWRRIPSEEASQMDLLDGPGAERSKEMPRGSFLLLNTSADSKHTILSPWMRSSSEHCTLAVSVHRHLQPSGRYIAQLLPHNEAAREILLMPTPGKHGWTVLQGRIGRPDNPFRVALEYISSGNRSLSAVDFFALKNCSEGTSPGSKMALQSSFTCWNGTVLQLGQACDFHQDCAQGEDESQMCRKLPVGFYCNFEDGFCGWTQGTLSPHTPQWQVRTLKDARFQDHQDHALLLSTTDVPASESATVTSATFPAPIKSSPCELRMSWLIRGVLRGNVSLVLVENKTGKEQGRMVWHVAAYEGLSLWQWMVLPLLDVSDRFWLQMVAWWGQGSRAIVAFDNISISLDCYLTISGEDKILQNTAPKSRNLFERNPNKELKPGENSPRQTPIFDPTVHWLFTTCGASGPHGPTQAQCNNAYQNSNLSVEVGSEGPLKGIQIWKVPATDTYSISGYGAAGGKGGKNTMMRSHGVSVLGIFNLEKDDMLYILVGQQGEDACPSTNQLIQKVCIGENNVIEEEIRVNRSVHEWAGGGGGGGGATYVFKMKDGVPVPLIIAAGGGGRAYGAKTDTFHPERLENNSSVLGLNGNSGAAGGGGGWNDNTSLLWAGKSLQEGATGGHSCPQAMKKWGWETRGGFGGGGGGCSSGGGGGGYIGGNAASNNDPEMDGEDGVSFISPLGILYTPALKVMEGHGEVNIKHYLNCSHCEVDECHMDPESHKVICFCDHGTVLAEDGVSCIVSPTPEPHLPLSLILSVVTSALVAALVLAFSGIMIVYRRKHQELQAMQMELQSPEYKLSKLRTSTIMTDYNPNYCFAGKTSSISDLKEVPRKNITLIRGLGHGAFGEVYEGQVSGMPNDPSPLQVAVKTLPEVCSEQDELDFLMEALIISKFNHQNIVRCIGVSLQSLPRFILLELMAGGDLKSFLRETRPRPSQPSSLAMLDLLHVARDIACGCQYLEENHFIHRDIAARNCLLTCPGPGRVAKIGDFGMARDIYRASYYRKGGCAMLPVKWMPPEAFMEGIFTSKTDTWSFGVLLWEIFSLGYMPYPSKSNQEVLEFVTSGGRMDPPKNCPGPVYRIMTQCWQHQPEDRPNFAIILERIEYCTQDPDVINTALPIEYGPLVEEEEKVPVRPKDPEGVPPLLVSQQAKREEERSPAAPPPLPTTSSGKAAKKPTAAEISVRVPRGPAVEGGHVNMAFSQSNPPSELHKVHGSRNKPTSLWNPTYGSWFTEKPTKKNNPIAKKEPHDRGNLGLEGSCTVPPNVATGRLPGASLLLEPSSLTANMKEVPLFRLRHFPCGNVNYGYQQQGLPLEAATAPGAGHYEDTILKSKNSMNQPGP

SMILES: CS(=O)(=O)N[C@@H]1CCCC[C@H]1Nc1nc(Nc2ccc3c(c2)CNCCO3)ncc1Cl [Example 524, N-{(1R,2R)-2[5-Chloro-2-(2,3,4,5-tetrahydro-benzo[f]oxazepin-7-ylamino)-pyrimidin-4-ylamino]-cyclohexyl}-methanesulfonamide]
- IC50 [1, 3]: 1 to 10 µM
- IC50 [2, 4]: < 100 nM

SMILES: CC1(C)CCC(=O)Nc2ccc(Nc3ncc(Cl)c(Nc4ccccc4-n4cccn4)n3)cc21 [Example 398, 7-[5-Chloro-4-(2-pyrazol-1-yl-phenylamino)-pyrimidin-2-ylamino]-5,5-dimethyl-1,3,4,5-tetrahydro-benzo[b]azepin-2-one]
- IC50 [1, 7]: > 10 µM
- IC50 ([2]; ALK kinase inhibition, 1 μM ATP (Km level), read-out: ALK Activity): < 100 nM

SMILES: COc1cc2c(cc1Nc1ncc(Cl)c(Nc3ccccc3-n3cccn3)n1)CCC(NCCO)CC2 (stereo not drawn) [Example 1091, 2-{2-[5-Chloro-4-(2-pyrazol-1-yl-phenylamino)-pyrimidin-2-ylamino]-3-methoxy-6,7,8,9-tetrahydro-5H-benzocyclohepten-7-ylamino}-ethanol]
- IC50 [1, 8]: 1 to 10 µM
- IC50 [2, 9]: < 100 nM

SMILES: COc1c(Nc2ncc(Cl)c(Nc3ccccc3C(=O)OC(C)C)n2)ccc2c1CCCC(N1CCOCC1)C2 (stereo not drawn) [Example 948, 2-[5-Chloro-2-(1-methoxy-6-morpholin-4-yl-6,7,8,9-tetrahydro-5H-benzocyclohepten-2-ylamino)-pyrimidin-4-ylamino]-benzoic acid isopropyl ester]
- IC50 [1, 3]: > 10 µM
- IC50 [2, 4]: 100 to 1000 nM

SMILES: Cc1cccc(C(=O)NCC#N)c1Nc1nc(Nc2ccc3c(c2)C(C)(C)CCC(=O)N3)ncc1Cl [Example 1038, 2-[5-Chloro-2-(5,5-dimethyl-2-oxo-2,3,4,5-tetrahydro-1H-benzo[b]azepin-7-ylamino)-pyrimidin-4-ylamino]-N-cyanomethyl-3-methyl-benzamide]
- IC50 [1, 8]: 0.1 to 1 µM
- IC50 [2, 9]: < 100 nM

SMILES: CNC(=O)CN1CCc2cc(Nc3ncc(Cl)c(Nc4ccc(N5CCOCC5)cc4OC)n3)c(OC)cc2CC1 [Example 1113, 2-{7-[5-Chloro-4-(2-methoxy-4-morpholin-4-yl-phenylamino)-pyrimidin-2-ylamino]-8-methoxy-1,2,4,5-tetrahydro-benzo[d]azepin-3-yl}-N-methyl-acetamide]
- IC50 [1, 8]: > 10 µM

SMILES: COc1cc2c(cc1Nc1ncc(Cl)c(Nc3ccc(N4CCOCC4)cc3OC)n1)CCN(CC(=O)N(C)C)CC2 [Example 261, 2-{7-[5-Chloro-4-(2-methoxy-4-morpholin-4-yl-phenylamino)-pyrimidin-2-ylamino]-8-methoxy-1,2,4,5-tetrahydro-benzo[d]azepin-3-yl}-N,N-dimethyl-acetamide]
- IC50 ([1]; cMet Activity, c-Met kinase inhibition, 1 μM ATP (Km level)): > 10 µM

SMILES: COc1ccc(Nc2nc(Nc3cc4c(cc3OC)CCN(CC(=O)N(C)C)CC4)ncc2Cl)c(OC)c1 [Example 812, 2-{7-[5-Chloro-4-(2,4-dimethoxy-phenylamino)-pyrimidin-2-ylamino]-8-methoxy-1,2,4,5-tetrahydro-benzo[d]azepin-3-yl}-N,N-dimethyl-acetamide]
- IC50 [1, 3]: > 10 µM

SMILES: COCCN1CCc2cc(Nc3ncc(Cl)c(Nc4ccc(N5CCOCC5)cc4OC)n3)c(OC)cc2CC1 [Example 113, 5-Chloro-N*2*-[8-methoxy-3-(2-methoxy-ethyl)-2,3,4,5-tetrahydro-1H-benzo[d]azepin-7-yl]-N*4*-(2-methoxy-4-morpholin-4-yl-phenyl)-pyrimidine-2,4-diamine]
- IC50 [1, 7]: > 10 µM

SMILES: CCN1C(=O)CCCc2c1ccc(Nc1ncc(Cl)c(Nc3ccc(N4CCOCC4)cc3OC)n1)c2OC [Example 119, 7-[5-Chloro-4-(2-methoxy-4-morpholin-4-yl-phenylamino)-pyrimidin-2-ylamino]-1-ethyl-6-methoxy-1,3,4,5-tetrahydro-benzo[b]azepin-2-one]
- IC50 [1, 7]: > 10 µM

SMILES: COc1cc2c(cc1Nc1ncc(Cl)c(Nc3ccc(N4CCOCC4)cc3OC)n1)CCN(CC(F)F)CC2 [Example 761, 5-Chloro-N*2*-[3-(2,2-difluoro-ethyl)-8-methoxy-2,3,4,5-tetrahydro-1H-benzo[d]azepin-7-yl]-N*4*-(2-methoxy-4-morpholin-4-yl-phenyl)-pyrimidine-2,4-diamine]
- IC50 [1, 3]: > 10 µM

Next, values leading:

- IC50 [1, 5]: < 0.1 µM
- IC50 [2, 6]: 100 to 1000 nM
SMILES: CNC(=O)c1cccc(F)c1Nc1nc(Nc2ccc3c(c2)NC(=O)CN(CCOC)C3)ncc1Cl [Example 1862, 2-{5-Chloro-2-[4-(2-methoxy-ethyl)-2-oxo-2,3,4,5-tetrahydro-1H-benzo[e][1,4]diazepin-8-ylamino]-pyrimidin-4-ylamino}-3-fluoro-N-methyl-benzamide]

- IC50 [1, 5]: < 0.1 µM
- IC50 [2, 6]: 100 to 1000 nM
SMILES: CNC(=O)c1ccccc1Nc1nc(Nc2ccc3c(c2)NC(=O)CNC3)ncc1Cl [Example 1858, 2-[5-Chloro-2-(2-oxo-2,3,4,5-tetrahydro-1H-benzo[e][1,4]diazepin-8-ylamino)-pyrimidin-4-ylamino]-N-methyl-benzamide]

- IC50 [1, 8]: 1 to 10 µM
- IC50 [2, 9]: < 100 nM
SMILES: COc1cc2c(cc1Nc1ncc(Cl)c(Nc3ccccc3S(C)(=O)=O)n1)CCN(CCS(C)(=O)=O)CC2 [Example 1148, 5-Chloro-N*2*-[3-(2-methanesulfonyl-ethyl)-8-methoxy-2,3,4,5-tetrahydro-1H-benzo[d]azepin-7-yl]-N*4*-(2-methanesulfonyl-phenyl)-pyrimidine-2,4-diamine]

- IC50 [1, 5]: < 0.1 µM
- IC50 [2, 6]: < 100 nM
SMILES: CNC(=O)c1cccc(F)c1Nc1nc(Nc2ccc3c(c2)NC(=O)CN(S(C)(=O)=O)C3)ncc1Cl [Example 1860, 2-[5-Chloro-2-(4-methanesulfonyl-2-oxo-2,3,4,5-tetrahydro-1H-benzo[e][1,4]diazepin-8-ylamino)pyrimidin-4-ylamino]-3-fluoro-N-methyl-benzamide]

- IC50 [1, 8]: 1 to 10 µM
- IC50 [2, 9]: < 100 nM
SMILES: COc1cc2c(cc1Nc1ncc(Cl)c(Nc3ccccc3S(=O)(=O)C(C)C)n1)CCN(CC(=O)N1CCCC1)CC2 [Example 1158, 2-(7-{5-Chloro-4-[2-(propane-2-sulfonyl)-phenylamino]-pyrimidin-2-ylamino}-8-methoxy-1,2,4,5-tetrahydro-benzo[d]azepin-3-yl)-1-pyrrolidin-1-yl-ethanone]

- IC50 [1, 5]: < 0.1 µM
- IC50 [2, 6]: 100 to 1000 nM
SMILES: CNC(=O)c1sc(Br)c(C)c1Nc1nc(Nc2ccc3c(c2)CCOC(=O)N3C)ncc1Cl [Example 1771, 5-Bromo-3-[5-chloro-2-(5-methyl-6-oxo-5,6,8,9-tetrahydro-7-oxa-5-aza-benzocyclohepten-2-ylamino)-pyrimidin-4-ylamino]-4-methyl-thiophene-2-carboxylic acid methylamide]

- IC50 [1, 5]: 1 to 10 µM
- IC50 [2, 6]: < 100 nM
SMILES: CC(C)N1C(=O)CCC(C)(C)c2ccc(Nc3ncc(Cl)c(N[C@H]4[C@@H](C(N)=O)[C@@H]5C=C[C@H]4C5)n3)cc21 [Example 1590, (1S,2S,3R,4R)-3-[5-Chloro-2-(1-isopropyl-5,5-dimethyl-2-oxo-2,3,4,5-tetrahydro-1H-benzo[b]azepin-8-ylamino)-pyrimidin-4-ylamino]-bicyclo[2.2.1]hept-5-ene-2-carboxylic acid amide]

- IC50 [1, 8]: > 10 µM
SMILES: COc1cc2c(cc1Nc1ncc(Cl)c(Nc3ccc(C#N)cc3OC)n1)CCN(CC(=O)N(C)C)CC2 [Example 1163, 2-{7-[5-Chloro-4-(4-cyano-2-methoxy-phenylamino)-pyrimidin-2-ylamino]-8-methoxy-1,2,4,5-tetrahydro-benzo[d]azepin-3-yl}-N,N-dimethyl-acetamide]

- IC50 [1, 8]: > 10 µM
SMILES: COc1cc2c(cc1Nc1ncc(Cl)c(Nc3ccc(C(N)=O)cc3OC)n1)CCN(CC(=O)N(C)C)CC2 [Example 1146, 4-[5-Chloro-2-(3-dimethylcarbamoylmethyl-8-methoxy-2,3,4,5-tetrahydro-1H-benzo[d]azepin-7-ylamino)-pyrimidin-4-ylamino]-3-methoxy-benzamide]

- IC50 [1, 8]: > 10 µM
SMILES: COc1cc2c(cc1Nc1ncc(Cl)c(Nc3ccccc3OC)n1)CCN(CC(=O)N(C)C)CC2 [Example 1130, 2-{7-[5-Chloro-4-(2-methoxy-phenylamino)-pyrimidin-2-ylamino]-8-methoxy-1,2,4,5-tetrahydro-benzo[d]azepin-3-yl}-N,N-dimethyl-acetamide]

- IC50 [1, 8]: > 10 µM
SMILES: COc1cc2c(cc1Nc1ncc(Cl)c(Nc3ccc(N4CCOCC4)cc3OC)n1)CCN(CCS(C)(=O)=O)CC2 [Example 1120, 5-Chloro-N*2*-[3-(2-methanesulfonyl-ethyl)-8-methoxy-2,3,4,5-tetrahydro-1H-benzo[d]azepin-7-yl]-N*4*-(2-methoxy-4-morpholin-4-yl-phenyl)-pyrimidine-2,4-diamine]

- IC50 [1, 8]: > 10 µM
SMILES: COCCOc1ccc(Nc2nc(Nc3cc4c(cc3OC)CCN(CC(=O)N(C)C)CC4)ncc2Cl)c(OC)c1 [Example 1169, 2-(7-{5-Chloro-4-[2-methoxy-4-(2-methoxy-ethoxy)-phenylamino]-pyrimidin-2-ylamino}-8-methoxy-1,2,4,5-tetrahydro-benzo[d]azepin-3-yl)-N,N-dimethyl-acetamide]

- IC50 [1, 8]: > 10 µM
SMILES: COc1cc2c(cc1Nc1ncc(Cl)c(Nc3ccc(N4CCOCC4)cc3)n1)CCN(CC(=O)N(C)C)CC2 [Example 1150, 2-{7-[5-Chloro-4-(4-morpholin-4-yl-phenylamino)-pyrimidin-2-ylamino]-8-methoxy-1,2,4,5-tetrahydro-benzo[d]azepin-3-yl}-N,N-dimethyl-acetamide]

Reference: patent publication US8148391B2 (Cephalon, Inc., priority 2006, dated 2012)
